In patent US10781203B2, “Nontoxic compounds for the treatment and prevention of herpesvirus infections” (The Penn State Research Foundation, priority 2016, dated 2020):
pEC50, pIC50: −log10 of the molar value.

Columns and labels:
[1] = test system: cells; experiment: Cell viability after extended treatment (trypan blue, bright field); format: cell-based; settings: after 96 hours of treatment
From the text: FIG. 3A is a growth curve analysis of HCMV (MOI=3) in untreated (WT), vehicle treated (DMSO) or Retro94-treated cells. Samples were harvested at 24, 48, 72, 96, 120 and 144 hpi. […] Nuclei labeled with DAPI (blue). Scale bars: 10 μm. FIG. 3C is a growth curve analysis of HCMV (MOI=0.05) in DMSO control (DMSO) or Retro94-treated cells. Samples were harvested at 3, 6, 9, 12 and 15 dpi. Asterisks indicate change of media with fresh Retro94. […] Bright field images of cell monolayers at 4 days post treatment are shown below graph. Brefeldin A was included as a positive control for cell death. Values in FIGS. 3A and 3C are from one representative experiment.
Normal human dermal fibroblasts, HDFs (Cell Applications Inc. 106-05N), and normal human lung fibroblasts, MRC-5 cells (ATCC CCL-171) were maintained in Dulbecco's modified Eagle's medium (DMEM) (Lonza). Human retinal pigmented epithelial cells (ARPE-19), maintained in DMEM/Ham's F12 (1:1 mix) (Lonza), human embryonic lung fibroblasts (HEL) and mouse embryonic fibroblasts (NIH 3T3), maintained in DMEM (Lonza) were obtained (Spector D J, Yetming K. Virology. 2010; 407(2):171-7; Spector D J. Virology. 2015, 476:345-54). All media was supplemented with 10% fetal bovine serum, 100 U/ml penicillin and 100 µg/ml streptomycin, and 2 mM GlutaMAX (Gibco). Cells were maintained at 37° C. with 5% CO2. […]

[2] = test system: HCMV; experiment: HCMV single-step growth curve / virus titer analysis (MOI=3); format: cell-based, Human cytomegalovirus (HCMV); settings: Human betaherpesvirus 5; for pEC50: MOI=3, harvested at 96 hpi (FIG. 9)
Method: Infections were done at an MOI of 0.05 for multi-step growth curves and MOI 3 for single-step growth curves. Infections were done on NHDFs unless otherwise noted. Virus was incubated with cells for 2 hours before addition of fresh media. For growth curve analyses, virus was harvested at the indicated time-points for each experiment by scraping the cells into the medium, sonicating 10 times with 1 second pulses, vortexing for 15 seconds, and centrifuging at 13,000 rpm for 10 min. Supernatants were collected, aliquoted and flash-frozen in liquid nitrogen before storage at −80° C.
(§1) For MCMV growth curve analysis, samples were titrated on NIH 3T3 cells and titers were calculated using the 50% tissue culture infective dose method. Both HCMV virus stocks and samples for growth curves were titrated by serial dilutions on MRC5 cells and quantified by the immunological detection of immediate-early proteins as previously described (Britt W J. Human cytomegalovirus: propagation, quantification, and storage. Curr Protoc Microbiol. 2010; Chapter 14: Unit 14E.3). The numbers of stained nuclei were acquired on a Nikon Eclipse Ti Inverted microscope and fluorescent nuclei were quantified using the NIS Elements Software. Images of viral foci from infection of ARPE19 cells were also acquired on Eclipse Ti Inverted microscope. The number and size of foci were quantified using NIS Elements software.
^1H NMR spectra were recorded on a 500 MHz Bruker spectrometer (Billerica, Mass.) using tetramethylsilane (TMS) as the internal reference. The following abbreviations were used to designate chemical shift multiplicities: s=singlet, d=doublet, dd=double doublet, t=triplet, dt=doublet of triplet, m=multiplet. Mass Spec analysis was performed on 4000 Q trap hybrid triple quadrupole/linear ion trap instrument (Applied Biosystems/MDS Sciex) at the proteomic facility at Penn State Hershey Cancer Institute, Hershey, Pa. Thin-layer chromatography (TLC) was on aluminum-supported, precoated silica gel plates (EM Industries, Gibbstown, N.J.). 5-(2-methyl-3-thiazol-4-yl)-2-thiophencarboxaldehyde was purchased from MAYBRIDGE-Thermo Fisher (Cornwall, UK). All other starting materials were obtained from Aldrich Chemical Co. (Milwaukee, Wis.) and used without further purification. Retro94 was added to cells at 2 hpi at a concentration of 10 μM, unless otherwise indicated.

[3] = test system: Zika virus; experiment: Growth curve analysis of Zika virus; format: cell-based; settings: MOI=5; 24, 48 and 72 hpi
From the text: (§2) FIG. 11A provides a table showing EC50 values of Retro94F against a range of viruses from diverse families. […] Samples were harvested at 24, 48 and 72 hpi. Data shown is from one independent replicates.

[4] = test system: KSHV; experiment: EC50 against other herpesviruses: KSHV; format: cell-based; settings: below the lowest concentration tested (FIG. 10B)
From the text: (§3) FIGS. 10A-10B show data to provide support for Retro94 and derivatives being effective against other herpesviruses. […] Samples were harvested at 24 hpi. Representative data shown are from independent replicates. FIG. 10B provides a table showing low nanomolar EC50 values of Retro94F against other herpesviruses.

[5] = test system: mouse polyomavirus; experiment: Immune response of mice challenged with mouse polyomavirus; format: in vivo, B6 mice
From the text: (A-E) B6 mice were infected via hind footpads with 2×10^5 PFU of MuPyV. FIGS. 14A and 14B show the results of the percent of immune cell populations in the spleen (FIG. 14A) and kidney (FIG. 14B) analyzed at day 8 post infection between vehicle- or Retro94F-treated mice. […] FIGS. 14D-14E show the phenotype of MuPyV-specific CD8 T cells, analyzed at day 8 or day 30 post infection. KLRG1hi CD127lo (FIG. 14D) cells are short-lived effector cells, while KLRG1lo CD127hi (FIG. 14E) cells are memory-precursor effector cells.
Thus, the inhibitors appear to be well tolerated by mice.

[6] = test system: range of viruses from diverse families; experiment: EC50 against non-herpesviruses; format: cell-based; settings: FIG. 11A
From the text: as §2

[7] = test system: MCMV; experiment: Viral titers of MCMV-infected fibroblasts; format: cell-based, mouse; settings: 6 dpi (FIG. 12A)
Method: FIG. 7A is a graph showing viral titers at 15 dpi of fibroblasts infected with various strains of HCMV (MOI=0.05) and treated with DMSO or Retro94 at 2 hpi. Media was changed and fresh Retro94 was added at 6 dpi. Bright field images representing CPE of above infections shown at right. FIG. 7B show HCMV-infected ARPE-19 cells (TB40, MOI=3) at 21 dpi treated with DMSO or Retro94 ([…]). Infected cells detected by monitoring mCherry (red) expressed by TB40 virus. Scale bars: 1 mm. The table below images show number of foci detected, average area and standard error of the mean. P<0.00001. […]
as §1, with “Images of viral foci from infection of ARPE19 cells were also acquired on Eclipse Ti Inverted microscope.” left out

[8] = test system: EBV; experiment: EC50 against other herpesviruses: EBV; format: cell-based; settings: below the lowest concentration tested (FIG. 10B)
From the text: as §3

[9] = Tolerability in mice (adverse effects, creatinine, BUN); format: in vivo, C57BL/6 mice
Method: FIGS. 13A-13B provides data to support Retro94F showing no overt toxicity in mice. FIGS. 13A and 13B, Mice were treated with […] Retro-2.1 or vehicle control one hour prior to infection with 2×10^4 PFU MuPyV, then daily until day 4 p.i.
While we obtained good results in tissue culture, developing animal models to test the inhibitors was undertaken to allow for studies to test both the properties of the compounds in a host as well as their efficacy against viruses. […] Thus, at least two mouse infection models in which to show efficacy of the compounds against infection in a host organism is provided. Administration of Retro94F to mice to monitor for potential adverse effects of the compound was undertaken. These initial studies have shown that Retro94F is well tolerated by the mice. For these studies, C57BL/6 mice were injected intraperitoneally once daily with 250 μg of Retro94F or vehicle control in 250 μl of 0.9% saline. […] Thus, the inhibitors appear to be well tolerated by mice.

Compound | cells remaining in the monolayer [1] | pEC50 [2] | inhibition of Zika virus infection [3] | EC50 (KSHV) [4] | signs of distress ([5]; challenge with mouse polyomavirus after treatment) | CD8 T cell response to the virus ([5]; day 8 or day 30 post infection) | levels of immune cells (spleen, kidney) ([5]; day 8 post infection) | EC50 against other viruses [6] | pIC50 ([2]; added at 2 hpi, MOI 3, 96 hpi, read-out: IC50 (HCMV titers)) | inhibition of replication of the mouse equivalent of CMV in culture [7] [%] | EC50 (EBV) [8] | adverse effects ([9]; 250 μg intraperitoneally once daily for 14 straight days) | kidney function (creatinine and BUN levels) ([9]; treated mice, day 4 and day 30 p.i.)
C[C@H]1CCC/C=C/[C@@H]2C[C@H](O)C[C@H]2[C@H](O)/C=C/C(=O)O1 [Brefeldin A, reference compound] | very few cells in the monolayer remained | – | – | – | – | – | – | – | – | – | – | – | –
Cc1nc(-c2ccc(C3N(C)c4ccc([N+](=O)[O-])cc4C(=O)N3c3ccccc3)s2)cs1 (centres unmarked) [DABL-NM, 6-Nitro-1-methyl-2-(5-(2-methylthiazol-4-yl)thiophen-2-yl)-3-phenyl-2,3-dihydroquinazolin-4(1H)-one] | – | ~7.70 | – | – | – | – | – | – | – | – | – | – | –
Cc1nc(-c2ccc(C3N(C)c4ccc(F)cc4C(=O)N3c3ccccc3)s2)cs1 (centres unmarked) [Retro94F, 6-Fluoro-1-methyl-2-(5-(2-methylthiazol-4-yl)thiophen-2-yl)-3-phenyl-2,3-dihydroquinazolin-4(1H)-one] | – | ~7.70 | approximately 90% | low naonmolar range | no signs of distress | did not alter | equivalent levels of immune cells as control treatment | high nanomolar to low micromolar range | ~7.82 | 99 | low naonmolar range | no apparent adverse effects | did not adversely affect kidney function
